Measured values published in patent publication US6914045B2, “Glycopeptide antibiotics” (Wyeth Holdings Corporation, priority 2001, dated 2005).
Converted amounts (≈) assume the structure as drawn.

What was measured:
Assay in all cases: in vitro antibacterial evaluation, MIC by broth dilution
Format in all cases: cell-based
[1] = test system: Enterococcus sp.; settings: broth dilution, 18 hours at 35° C.; for MIC Enterococcus faecalis (ATCC 29212): strain ATCC 29212; for MIC Enterococcus faecalis (GC 2242): strain GC 2242; for MIC Enterococcus faecium (GC 2243): strain GC 2243; for MIC Enterococcus faecalis (GC 2691): strain GC 2691; for MIC Enterococcus faecalis (GC 3059): strain GC 3059; for MIC Enterococcus faecalis (GC 4552): strain GC 4552; for MIC Enterococcus faecalis (GC 4553): strain GC 4553; for MIC Enterococcus faecalis (GC 4554): strain GC 4554; for MIC Enterococcus faecium (GC 4556): strain GC 4556; for MIC Enterococcus faecium (GC 4557): strain GC 4557; for MIC Enterococcus avium (GC 4558): strain GC 4558; for MIC Enterococcus faecalis (GC 6189): strain GC 6189
Procedure, shortened: (§1)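 Step 1: dilute antibiotic across 64-0.06 μg/mL in Muller-Hinton II […]. Step 2: inoculate at 5×10^5 CFU/mL.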

[2] = test system: Escherichia coli
Procedure, shortened: as §1

[3] = test system: Staphylococcus sp.; settings: broth dilution, 18 hours at 35° C.; for MIC Staphylococcus aureus (GC 1131): strain GC 1131
Procedure, shortened: as §1

[4] = test system: Streptococcus sp.; settings: broth dilution, 18 hours at 35° C.; for MIC Streptococcus pneumoniae (ATCC 6301): strain ATCC 6301; for MIC Streptococcus pneumoniae (GC 1894): strain GC 1894; for MIC Streptococcus pyogenes (GC 4563): strain GC 4563; for MIC Streptococcus agalactiae (GC 4564): strain GC 4564; for MIC Streptococcus pneumoniae (GC 4565): strain GC 4565
Procedure, shortened: as §1

MIC Enterococcus faecalis (ATCC 29212) ([1]; inoculum 5×10^5 CFU/mL): >64 µg/mL | MIC Enterococcus faecalis (GC 2242) ([1]; inoculum 5×10^5 CFU/mL): >64 µg/mL | MIC Enterococcus faecium (GC 2243) ([1]; inoculum 5×10^5 CFU/mL): >64 µg/mL | MIC Enterococcus faecalis (GC 2691) ([1]; inoculum 5×10^5 CFU/mL): >64 µg/mL | MIC Enterococcus faecalis (GC 3059) ([1]; inoculum 5×10^5 CFU/mL): >64 µg/mL | MIC Enterococcus faecalis (GC 4552) ([1]; inoculum 5×10^5 CFU/mL): >64 µg/mL | MIC Enterococcus faecalis (GC 4553) ([1]; inoculum 5×10^5 CFU/mL): >64 µg/mL | MIC Enterococcus faecalis (GC 4554) ([1]; inoculum 5×10^5 CFU/mL): >64 µg/mL | MIC Enterococcus faecium (GC 4556) ([1]; inoculum 5×10^5 CFU/mL): >64 µg/mL | MIC Enterococcus faecium (GC 4557) ([1]; inoculum 5×10^5 CFU/mL): >64 µg/mL | MIC Enterococcus avium (GC 4558) ([1]; inoculum 5×10^5 CFU/mL): >64 µg/mL | MIC Enterococcus faecalis (GC 6189) ([1]; inoculum 5×10^5 CFU/mL): >64 µg/mL | MIC Enterococcus faecalis (ATCC 29212) [1]: >64 µg/mL | MIC Enterococcus faecalis (GC 2242) [1]: >64 µg/mL | MIC Enterococcus faecium (GC 2243) [1]: >64 µg/mL | MIC Enterococcus faecalis (GC 2691) [1]: >64 µg/mL | MIC Enterococcus faecalis (GC 3059) [1]: >64 µg/mL | MIC Enterococcus faecalis (GC 4552) [1]: >64 µg/mL | MIC Enterococcus faecalis (GC 4553) [1]: >64 µg/mL | MIC Enterococcus faecalis (GC 4554) [1]: >64 µg/mL | MIC Enterococcus faecium (GC 4556) [1]: >64 µg/mL | MIC Enterococcus faecium (GC 4557) [1]: >64 µg/mL | MIC Enterococcus avium (GC 4558) [1]: >64 µg/mL | MIC Enterococcus faecalis (GC 6189) [1]: >64 µg/mL | MIC Escherichia coli (ATCC 25922) ([2]; strain ATCC 25922, 18 hours at 35° C.): >64 µg/mL | MIC Escherichia coli (GC 4559) ([2]; strain GC 4559, 18 hours at 35° C.): >64 µg/mL | MIC Escherichia coli (GC 4560) ([2]; strain GC 4560, 18 hours at 35° C.): >64 µg/mL | MIC Staphylococcus aureus (GC 1131) ([3]; inoculum 5×10^5 CFU/mL): >64 µg/mL | MIC Staphylococcus aureus (ATCC 29213) ([3]; strain ATCC 29213): >64 µg/mL | MIC Staphylococcus aureus (GC 1131) [3]: >64 µg/mL | MIC Staphylococcus aureus (GC 3051) ([3]; strain GC 3051): >64 µg/mL | MIC Staphylococcus aureus (GC 3053) ([3]; strain GC 3053): >64 µg/mL | MIC Staphylococcus aureus (GC 4541) ([3]; strain GC 4541): >64 µg/mL | MIC Staphylococcus aureus (GC 4542) ([3]; strain GC 4542): >64 µg/mL | MIC Staphylococcus aureus (GC 4544) ([3]; strain GC 4544): >64 µg/mL | MIC Staphylococcus aureus (GC 4545) ([3]; strain GC 4545): >64 µg/mL | MIC Staphylococcus aureus-SMITH (GC 4543) ([3]; strain GC 4543): >64 µg/mL | MIC Coagulase Negative Staphylococcus (GC 4547) ([3]; strain GC 4547): >64 µg/mL | MIC Coagulase Negative Staphylococcus (GC 4548) ([3]; strain GC 4548): >64 µg/mL | MIC Coagulase Negative Staphylococcus (GC 4549) ([3]; strain GC 4549): >64 µg/mL | MIC Coagulase Negative Staphylococcus (GC 4551) ([3]; strain GC 4551): >64 µg/mL | MIC Coagulase Negative Staphylococcus (GC 6257) ([3]; strain GC 6257): >64 µg/mL | MIC Streptococcus pneumoniae (ATCC 6301) ([4]; inoculum 5×10^5 CFU/mL): 4 µg/mL (≈ 2.61 µM) | MIC Streptococcus pneumoniae (GC 1894) ([4]; inoculum 5×10^5 CFU/mL): 8 µg/mL (≈ 5.21 µM) | MIC Streptococcus pyogenes (GC 4563) ([4]; inoculum 5×10^5 CFU/mL): 64 µg/mL (≈ 41.7 µM) | MIC Streptococcus agalactiae (GC 4564) ([4]; inoculum 5×10^5 CFU/mL): 32 µg/mL (≈ 20.9 µM) | MIC Streptococcus pneumoniae (GC 4565) ([4]; inoculum 5×10^5 CFU/mL): 8 µg/mL (≈ 5.21 µM) | MIC Streptococcus pneumoniae (ATCC 6301) [4]: 4 µg/mL (≈ 2.61 µM) | MIC Streptococcus pneumoniae (GC 1894) [4]: 8 µg/mL (≈ 5.21 µM) | MIC Streptococcus pyogenes (GC 4563) [4]: 64 µg/mL (≈ 41.7 µM) | MIC Streptococcus agalactiae (GC 4564) [4]: 32 µg/mL (≈ 20.9 µM) | MIC Streptococcus pneumoniae (GC 4565) [4]: 8 µg/mL (≈ 5.21 µM)
Compound: CC(c1ccccc1)C1NC(=O)CNC(=O)C(CO)NC(=O)C(C(O)C2CNC(=N)N2C2OC(CO)C(O)C(O)C2O)NC(=O)C(C(O)C2CNC(=N)N2)NC(=O)C(Cc2ccc(OC3OC(CO)C(OC4OC5COC(c6cccc(OCc7ccc([N+](=O)[O-])cc7)c6)OC5C(O)C4O)C(O)C3O)cc2)NC1=O (centres unmarked) [Example 182]
MIC Staphylococcus haemolyticus (GC 4546) ([3]; strain GC 4546): >64 µg/mL
